Common to all, as to assay type: biochemical
Assay [1] addresses JAK1 (Homo sapiens, UniProt P23458). Put plainly: JAK Kinase Assay (JAK1, Caliper EZ Reader, fluoresceinated peptide). The following applies: ATP 76.5 μM; JAK1 10 nM; 120 minutes at room temperature; read-out: JAK1 inhibition.
The target in assay [2] is JAK2 (Homo sapiens, UniProt O60674). Nature of the assay: JAK2 Assay (Caliper EZ Reader, fluoresceinated peptide). The following applies: ATP 11.4 μM; JAK2 0.25 nM; 15 minutes at room temperature; read-out: JAK2 inhibition.
Sequence of JAK2 (O60674 whole entry, species assumed): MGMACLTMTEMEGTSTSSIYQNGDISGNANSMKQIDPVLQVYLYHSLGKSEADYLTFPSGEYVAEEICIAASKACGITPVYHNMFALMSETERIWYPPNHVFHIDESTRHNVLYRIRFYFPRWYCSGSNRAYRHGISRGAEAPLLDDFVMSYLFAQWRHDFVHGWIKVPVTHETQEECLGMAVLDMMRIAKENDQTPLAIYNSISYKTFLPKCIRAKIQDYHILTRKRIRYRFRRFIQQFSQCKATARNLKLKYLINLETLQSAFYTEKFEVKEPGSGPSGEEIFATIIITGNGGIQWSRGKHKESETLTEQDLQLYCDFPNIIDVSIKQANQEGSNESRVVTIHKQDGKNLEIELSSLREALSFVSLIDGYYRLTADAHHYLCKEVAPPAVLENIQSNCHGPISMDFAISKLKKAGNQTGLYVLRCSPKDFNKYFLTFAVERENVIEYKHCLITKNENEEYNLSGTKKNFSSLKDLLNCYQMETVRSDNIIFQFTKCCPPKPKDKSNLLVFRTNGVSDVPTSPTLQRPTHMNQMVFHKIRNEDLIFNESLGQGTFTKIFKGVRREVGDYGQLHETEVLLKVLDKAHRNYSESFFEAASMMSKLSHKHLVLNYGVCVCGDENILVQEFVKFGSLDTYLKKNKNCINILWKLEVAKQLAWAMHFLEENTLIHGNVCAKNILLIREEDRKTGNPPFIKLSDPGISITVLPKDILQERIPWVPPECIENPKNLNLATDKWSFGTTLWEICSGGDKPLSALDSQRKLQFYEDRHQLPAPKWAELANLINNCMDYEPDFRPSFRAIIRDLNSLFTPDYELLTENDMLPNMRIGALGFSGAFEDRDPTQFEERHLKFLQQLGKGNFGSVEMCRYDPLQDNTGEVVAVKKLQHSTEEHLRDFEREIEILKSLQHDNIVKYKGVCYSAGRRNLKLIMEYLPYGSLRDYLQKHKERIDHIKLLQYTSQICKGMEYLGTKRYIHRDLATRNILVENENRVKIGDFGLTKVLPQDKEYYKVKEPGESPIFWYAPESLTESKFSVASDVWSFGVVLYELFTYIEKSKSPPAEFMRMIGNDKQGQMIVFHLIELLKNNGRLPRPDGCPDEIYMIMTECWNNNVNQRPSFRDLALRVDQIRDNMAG
Assay [3] deals with T1, JAK3 (Homo sapiens, UniProt P52333).
T1 sequence (P52333 1-1124): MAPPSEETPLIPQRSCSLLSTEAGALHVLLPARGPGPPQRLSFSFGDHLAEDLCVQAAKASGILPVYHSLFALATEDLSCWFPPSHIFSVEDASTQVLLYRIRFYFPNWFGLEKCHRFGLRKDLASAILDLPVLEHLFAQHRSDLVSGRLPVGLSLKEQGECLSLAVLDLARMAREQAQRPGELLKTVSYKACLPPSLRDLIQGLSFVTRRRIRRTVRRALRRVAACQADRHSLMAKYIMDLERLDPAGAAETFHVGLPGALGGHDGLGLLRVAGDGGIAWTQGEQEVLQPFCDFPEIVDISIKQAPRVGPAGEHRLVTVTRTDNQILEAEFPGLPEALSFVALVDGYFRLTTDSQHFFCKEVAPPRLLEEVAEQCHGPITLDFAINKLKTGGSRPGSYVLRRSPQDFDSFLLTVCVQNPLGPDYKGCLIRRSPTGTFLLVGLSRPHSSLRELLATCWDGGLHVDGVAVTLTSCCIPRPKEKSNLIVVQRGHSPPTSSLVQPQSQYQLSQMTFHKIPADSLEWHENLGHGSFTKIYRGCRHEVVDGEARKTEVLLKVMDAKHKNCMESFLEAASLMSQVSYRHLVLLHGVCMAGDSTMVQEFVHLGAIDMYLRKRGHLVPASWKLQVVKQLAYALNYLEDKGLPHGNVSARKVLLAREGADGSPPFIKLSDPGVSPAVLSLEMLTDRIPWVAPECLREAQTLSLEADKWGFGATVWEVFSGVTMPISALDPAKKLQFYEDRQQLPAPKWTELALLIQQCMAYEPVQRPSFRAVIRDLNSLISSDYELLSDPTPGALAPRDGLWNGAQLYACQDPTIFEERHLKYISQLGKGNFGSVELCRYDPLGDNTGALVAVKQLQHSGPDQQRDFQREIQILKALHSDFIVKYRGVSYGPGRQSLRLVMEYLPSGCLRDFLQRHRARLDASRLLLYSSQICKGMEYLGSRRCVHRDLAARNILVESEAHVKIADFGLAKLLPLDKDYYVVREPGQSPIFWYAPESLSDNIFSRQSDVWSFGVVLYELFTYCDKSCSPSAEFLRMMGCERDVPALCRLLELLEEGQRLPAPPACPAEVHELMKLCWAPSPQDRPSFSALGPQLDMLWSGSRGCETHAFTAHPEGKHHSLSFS
Put plainly: JAK3 Assay (Caliper EZ Reader, fluoresceinated peptide). The conditions noted are these: ATP 3.5 μM; JAK3 0.5 nM; 30 minutes at room temperature; read-out: JAK3 inhibition.

For assay [4], the target named is TYK2 (Homo sapiens, UniProt P29597). Put plainly: TYK2 Assay (Caliper EZ Reader, fluoresceinated peptide). The conditions noted are these: ATP 35.4 μM; TYK2 10 nM; 10 minutes at room temperature; read-out: TYK2 inhibition. As for the experimental part: 384-well plates in the left foot butoxy measured progress. The final assay volume was 25 μL, 250 nL 100× compounds, 10 μL enzyme mix and 15 μL substrate mix (fluoresceinated peptide and ATP) in assay buffer (50 mM HEPES (pH 7.5), 10 mM MgCl2, 0.01% TritonX-100, 0.01% Brij35, 0.5 mM EGTA and 2 mM DTT) prepared as test compound. B mixing the TYK2 with substrates and test compounds to start the reaction. The reaction mixture was incubated for 10 minutes at room temperature, then added 30 μL stop buffer for each sample to terminate the reaction with 50 mM EDTA. After termination of the kinase reaction, the proportion of phosphorylated product was determined as a fraction of total peptide substrate using Caliper EZ Reader 1. Inhibition data were calculated by comparison with 100% of the reaction mixture without enzyme inhibition and vehicle-only reaction mixture billion % inhibition compared. The final concentration of reagents in the assays is: ATP, 35.4 μM; TYK2 fluorescent peptide (5-FAM-KKKKEEIYFFF-CONH2), 3 μM; TYK2, 10 nM; and DMSO, 1% Dose response curve were generated to determine the concentration required for IC50 of TYK2 activity.
Sequence of TYK2 (P29597 whole entry, species assumed): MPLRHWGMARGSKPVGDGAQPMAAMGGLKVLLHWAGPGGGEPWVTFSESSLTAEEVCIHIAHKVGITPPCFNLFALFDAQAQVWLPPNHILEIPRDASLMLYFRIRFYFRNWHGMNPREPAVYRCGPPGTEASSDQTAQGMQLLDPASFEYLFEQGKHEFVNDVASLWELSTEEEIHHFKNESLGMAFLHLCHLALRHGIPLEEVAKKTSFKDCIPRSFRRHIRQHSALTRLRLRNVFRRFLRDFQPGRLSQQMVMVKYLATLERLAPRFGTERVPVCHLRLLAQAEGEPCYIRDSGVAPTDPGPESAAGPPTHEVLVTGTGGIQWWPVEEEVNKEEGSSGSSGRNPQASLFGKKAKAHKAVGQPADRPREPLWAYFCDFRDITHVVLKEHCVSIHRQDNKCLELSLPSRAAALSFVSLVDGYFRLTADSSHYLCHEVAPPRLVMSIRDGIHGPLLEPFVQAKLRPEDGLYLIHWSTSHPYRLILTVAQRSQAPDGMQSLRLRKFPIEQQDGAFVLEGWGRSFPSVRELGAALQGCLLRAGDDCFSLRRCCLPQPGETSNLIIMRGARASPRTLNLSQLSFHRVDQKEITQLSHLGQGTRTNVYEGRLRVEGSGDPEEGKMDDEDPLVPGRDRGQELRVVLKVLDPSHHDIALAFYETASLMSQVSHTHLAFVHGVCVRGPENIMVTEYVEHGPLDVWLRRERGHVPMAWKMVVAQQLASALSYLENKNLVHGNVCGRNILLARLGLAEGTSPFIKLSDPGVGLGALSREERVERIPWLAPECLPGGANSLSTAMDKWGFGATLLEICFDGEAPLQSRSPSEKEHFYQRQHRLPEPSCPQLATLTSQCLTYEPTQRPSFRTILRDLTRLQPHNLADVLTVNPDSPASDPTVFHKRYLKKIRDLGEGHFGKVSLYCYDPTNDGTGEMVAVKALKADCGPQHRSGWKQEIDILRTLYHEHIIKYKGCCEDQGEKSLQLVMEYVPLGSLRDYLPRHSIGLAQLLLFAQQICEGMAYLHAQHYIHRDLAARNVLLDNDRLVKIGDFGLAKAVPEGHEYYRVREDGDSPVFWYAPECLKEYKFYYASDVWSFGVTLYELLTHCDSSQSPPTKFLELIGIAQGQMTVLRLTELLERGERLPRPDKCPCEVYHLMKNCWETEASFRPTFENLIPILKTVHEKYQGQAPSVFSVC

Sequence of JAK1 (P23458 whole entry, species assumed): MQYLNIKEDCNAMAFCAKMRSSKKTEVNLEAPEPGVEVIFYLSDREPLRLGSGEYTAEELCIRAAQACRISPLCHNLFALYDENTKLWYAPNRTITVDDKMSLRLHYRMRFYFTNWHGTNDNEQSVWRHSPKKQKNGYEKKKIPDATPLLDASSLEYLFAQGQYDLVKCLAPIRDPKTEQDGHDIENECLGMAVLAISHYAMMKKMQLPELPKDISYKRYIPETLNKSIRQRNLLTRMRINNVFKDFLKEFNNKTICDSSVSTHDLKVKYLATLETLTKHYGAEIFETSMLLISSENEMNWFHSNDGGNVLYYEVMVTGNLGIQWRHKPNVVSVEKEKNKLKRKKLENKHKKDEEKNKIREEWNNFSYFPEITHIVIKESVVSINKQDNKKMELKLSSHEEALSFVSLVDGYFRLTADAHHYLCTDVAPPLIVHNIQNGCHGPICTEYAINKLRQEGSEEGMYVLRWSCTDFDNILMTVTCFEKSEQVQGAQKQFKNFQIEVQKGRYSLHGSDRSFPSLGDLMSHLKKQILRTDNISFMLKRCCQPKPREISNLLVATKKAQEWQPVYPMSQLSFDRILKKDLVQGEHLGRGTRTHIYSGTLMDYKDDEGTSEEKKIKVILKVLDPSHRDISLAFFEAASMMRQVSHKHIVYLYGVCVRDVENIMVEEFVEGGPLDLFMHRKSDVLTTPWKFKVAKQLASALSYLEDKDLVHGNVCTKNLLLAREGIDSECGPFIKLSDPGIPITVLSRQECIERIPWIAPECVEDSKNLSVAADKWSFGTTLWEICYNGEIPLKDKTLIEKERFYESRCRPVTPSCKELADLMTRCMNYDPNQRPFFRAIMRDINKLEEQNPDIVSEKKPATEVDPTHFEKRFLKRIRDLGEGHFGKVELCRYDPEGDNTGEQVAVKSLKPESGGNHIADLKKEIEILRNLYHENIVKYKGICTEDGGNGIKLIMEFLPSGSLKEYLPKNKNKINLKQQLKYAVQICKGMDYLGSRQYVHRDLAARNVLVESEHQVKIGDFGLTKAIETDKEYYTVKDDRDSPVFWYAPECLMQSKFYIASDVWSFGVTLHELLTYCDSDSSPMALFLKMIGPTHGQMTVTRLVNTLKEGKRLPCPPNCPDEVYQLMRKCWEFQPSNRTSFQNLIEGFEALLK

Regarding `CN(c1ncnc2[nH]ccc12)C1CC2(C1)CN(C(=O)c1ccc(C#N)c(F)c1)C2` [Compound 1, 2-fluoro-4-(6-(methyl(7H-pyrrolo[2,3-d]pyrimidin-4-yl)amino)-2-azaspiro[3.3]heptane-2-carbonyl)benzonitrile], the IC50 in assay [1] is 10 to 100 nM; in assay [2], 1000 to 10000 nM; in assay [3] it was at least 10000 nM; in assay [4], at least 10000 nM.
On to `CN(c1ncnc2[nH]ccc12)C1CC2(C1)CN(C(=O)c1ccc(C#N)cc1F)C2` [Compound 14, 3-fluoro-4-(6-(methyl(7H-pyrrolo[2,3-d]pyrimidin-4-yl)amino)-2-azaspiro[3.3]heptane-2-carbonyl)benzonitrile], for which the IC50 in assay [1] was 10 to 100 nM; in assay [2], 100 to 1000 nM; in assay [3], at least 10000 nM; in assay [4] it was at least 10000 nM.
For `COc1ccc(C(=O)N2CC3(CC(N(C)c4ncnc5[nH]ccc45)C3)C2)cc1` [Compound 24, (4-methoxyphenyl)(6-(methyl(7H-pyrrolo[2,3-d]pyrimidin-4-yl)amino)-2-azaspiro[3.3]heptan-2-yl)methanone], the IC50 in assay [1] was 10 to 100 nM; in assay [2] it was 1000 to 10000 nM; in assay [3], at least 10000 nM; in assay [4] it was at least 10000 nM.
For the compound `CN(c1ncnc2[nH]ccc12)C1CC2(C1)CN(C(=O)c1ccc(Cl)cc1)C2` [Compound 25, (4-chlorophenyl)(6-(methyl(7H-pyrrolo[2,3-d]pyrimidin-4-yl)amino)-2-azaspiro[3.3]heptan-2-yl)methanone], the IC50 is 10 to 100 nM in assay [1], 1000 to 10000 nM in assay [2], at least 10000 nM in assay [3] and at least 10000 nM in assay [4].
Turning to `C#Cc1ccc(C(=O)N2CC3(CC(N(C)c4ncnc5[nH]ccc45)C3)C2)cc1` [Compound 26, (4-ethynylphenyl)(6-(methyl(7H-pyrrolo[2,3-d]pyrimidin-4-yl)amino)-2-azaspiro[3.3]heptan-2-yl)methanone], the IC50 in assay [1] was at most 10 nM; in assay [2], 100 to 1000 nM; in assay [3] it was at least 10000 nM; in assay [4] it was 1000 to 10000 nM.
In the case of `CN(c1ncnc2[nH]ccc12)C1CC2(C1)CN(C(=O)c1ccc(F)cc1)C2` [Compound 27, (4-fluorophenyl)(6-(methyl(7H-pyrrolo[2,3-d]pyrimidin-4-yl)amino)-2-azaspiro[3.3]heptan-2-yl)methanone], the IC50 in assay [1] was 10 to 100 nM; in assay [2], 1000 to 10000 nM; in assay [3], at least 10000 nM; in assay [4] it was at least 10000 nM.
`Cc1ccsc1C(=O)N1CC2(CC(N(C)c3ncnc4[nH]ccc34)C2)C1` [Compound 28, (6-(methyl(7H-pyrrolo[2,3-d]pyrimidin-4-yl)amino)-2-azaspiro[3.3]heptan-2-yl)(3-methylthiophen-2-yl)methanone]: the IC50 is 10 to 100 nM in assay [1], 100 to 1000 nM in assay [2], at least 10000 nM in assay [3] and at least 10000 nM in assay [4].
Consider `CN(c1ncnc2[nH]ccc12)C1CC2(C1)CN(C(=O)c1cc3ccccc3[nH]1)C2` [Compound 30, (1H-indol-2-yl)(6-(methyl(7H-pyrrolo[2,3-d]pyrimidin-4-yl)amino)-2-azaspiro[3.3]heptan-2-yl)methanone], for which the IC50 was 10 to 100 nM in assay [1], 100 to 1000 nM in assay [2], at least 10000 nM in assay [3] and 1000 to 10000 nM in assay [4].
With `CN(c1ncnc2[nH]ccc12)C1CC2(C1)CN(C(=O)c1ccc(C(F)(F)F)cc1)C2` [Compound 31, (6-(methyl(7H-pyrrolo[2,3-d]pyrimidin-4-yl)amino)-2-azaspiro[3.3]heptan-2-yl)(4-(trifluoromethyl)phenyl)methanone], the IC50 in assay [1] is 100 to 1000 nM; in assay [2], 1000 to 10000 nM; in assay [3], at least 10000 nM; in assay [4], at least 10000 nM.
For `CN(c1ncnc2[nH]ccc12)C1CC2(C1)CN(C(=O)c1ccc(Cl)cn1)C2` [Compound 32, (5-chloropyridin-2-yl)(6-(methyl(7H-pyrrolo[2,3-d]pyrimidin-4-yl)amino)-2-azaspiro[3.3]heptan-2-yl)methanone], the IC50 is 10 to 100 nM in assay [1], 1000 to 10000 nM in assay [2], at least 10000 nM in assay [3] and at least 10000 nM in assay [4].
As to `CN(c1ncnc2[nH]ccc12)C1CC2(C1)CN(C(=O)Nc1cccc(Cl)c1)C2` [Compound 33, N-(3-chlorophenyl)-6-(methyl(7H-pyrrolo[2,3-d]pyrimidin-4-yl)amino)-2-azaspiro[3.3]heptane-2-carboxamide], the IC50 in assay [1] was 100 to 1000 nM; in assay [2], 1000 to 10000 nM; in assay [3], at least 10000 nM; in assay [4], at least 10000 nM.
Take `CN(c1ncnc2[nH]ccc12)C1CC2(C1)CN(C(=O)c1ccc(C#N)c(F)c1F)C2` [Compound 53, 2,3-difluoro-4-(6-(methyl(7H-pyrrolo[2,3-d]pyrimidin-4-yl)amino)-2-azaspiro[3.3]heptane-2-carbonyl)benzonitrile]: the IC50 in assay [1] is at most 10 nM; in assay [2], 100 to 1000 nM; in assay [3], 1000 to 10000 nM; in assay [4], 1000 to 10000 nM.
As for `CN(c1ncnc2[nH]ccc12)C1CCC2(CC1)CCN(C(=O)c1cc3ccccc3s1)CC2` [Compound 105, Benzo[b]thiophen-2-yl-{9-[methyl-(7H-pyrrolo[2,3-d]pyrimidin-4-yl)-amino]-3-aza-spiro[5.5]undec-3-yl}-methanone], the IC50 was 100 to 1000 nM in assay [1], 100 to 1000 nM in assay [2] and 1000 to 10000 nM in assay [3].
